Consider two compounds from patent publication US10786571B2, “Hydrophilic gel for topical delivery of 5-aminolevulinic acid” (Zimmer Biotech GmbH, priority 2015, dated 2020).

Where only a bound is given, the exact number is not on record here.

For data set [1] the following is noted: aqueous solution; cited from earlier work.
Data set [2] can be described thus: Stability of 5-ALA / product. The conditions noted are these: different storage conditions. The class given is physicochemical.
For data set [3] the following is noted: cited from earlier work.

Take `NCC(=O)CCC(=O)O` [5-ALA, 5-aminolevulinic acid]: the “pH of best stability of aqueous solutions” value in data set [1] was below 6. In addition, in data set [2], the “long-term stability in double chamber tube” value is reported as “long-term stable at different storage conditions without degradation”. Besides, the “sensitivity to daylight after treatment” value in data set [3] was 1 to 2 days.
As for Porfimer Sodium [Photofrin], the “sensitivity to daylight after treatment” value in data set [3] is 30 to 60 days.
